Experiments:
Type in all cases: functional
[1] = tested on: ACHN; assay: Anticancer activity against human ACHN cells assessed cell growth at 10 uM after 48 hrs by sulforhodamine B assay relative to control
[2] = tested on: CAKI-1; assay: Anticancer activity against human Caki1 cells assessed cell growth at 10 uM after 48 hrs by sulforhodamine B assay relative to control
[3] = tested on: TK-10; assay: Anticancer activity against human TK10 cells assessed cell growth at 10 uM after 48 hrs by sulforhodamine B assay relative to control
[4] = tested on: UO-31; assay: Anticancer activity against human UO31 cells assessed cell growth at 10 uM after 48 hrs by sulforhodamine B assay relative to control
[5] = tested on: PC-3; assay: Anticancer activity against human PC3 cells assessed cell growth at 10 uM after 48 hrs by sulforhodamine B assay relative to control
[6] = tested on: DU-145; assay: Anticancer activity against human DU145 cells assessed cell growth at 10 uM after 48 hrs by sulforhodamine B assay relative to control
[7] = tested on: NCI/ADR-RES; assay: Anticancer activity against human NCI/ADR-RES cells assessed cell growth at 10 uM after 48 hrs by sulforhodamine B assay relative to control
[8] = tested on: MDA-MB-435; assay: Anticancer activity against human MDA-MB-435 cells assessed cell growth at 10 uM after 48 hrs by sulforhodamine B assay relative to control
[9] = tested on: BT-549; assay: Anticancer activity against human BT549 cells assessed cell growth at 10 uM after 48 hrs by sulforhodamine B assay relative to control
[10] = tested on: MDA-MB-468; assay: Anticancer activity against human MDA-MB-468 cells assessed cell growth at 10 uM after 48 hrs by sulforhodamine B assay relative to control
[11] = tested on: K562; assay: Anticancer activity against human K562 cells assessed cell growth at 10 uM after 48 hrs by sulforhodamine B assay relative to control
[12] = Anticancer activity against human RPMI8266 cells assessed cell growth at 10 uM after 48 hrs by sulforhodamine B assay relative to control
[13] = tested on: SR; assay: Anticancer activity against human SR cells assessed cell growth at 10 uM after 48 hrs by sulforhodamine B assay relative to control
[14] = tested on: A549; assay: Anticancer activity against human A549 cells assessed cell growth at 10 uM after 48 hrs by sulforhodamine B assay relative to control
[15] = tested on: HOP-62; assay: Anticancer activity against human HOP62 cells assessed cell growth at 10 uM after 48 hrs by sulforhodamine B assay relative to control
[16] = tested on: HOP-92; assay: Anticancer activity against human HOP92 cells assessed cell growth at 10 uM after 48 hrs by sulforhodamine B assay relative to control
[17] = tested on: NCI-H226; assay: Anticancer activity against human NCI-H226 cells assessed cell growth at 10 uM after 48 hrs by sulforhodamine B assay relative to control
[18] = tested on: NCI-H460; assay: Anticancer activity against human NCI-H460 cells assessed cell growth at 10 uM after 48 hrs by sulforhodamine B assay relative to control
[19] = tested on: NCI-H522; assay: Anticancer activity against human NCI-H522 cells assessed cell growth at 10 uM after 48 hrs by sulforhodamine B assay relative to control
[20] = tested on: COLO 205; assay: Anticancer activity against human COLO205 cells assessed cell growth at 10 uM after 48 hrs by sulforhodamine B assay relative to control
[21] = tested on: HCC 2998; assay: Anticancer activity against human HCC2998 cells assessed cell growth at 10 uM after 48 hrs by sulforhodamine B assay relative to control
[22] = tested on: HCT-116; assay: Anticancer activity against human HCT116 cells assessed cell growth at 10 uM after 48 hrs by sulforhodamine B assay relative to control
[23] = tested on: HCT-15; assay: Anticancer activity against human HCT15 cells assessed cell growth at 10 uM after 48 hrs by sulforhodamine B assay relative to control
[24] = tested on: HT-29; assay: Anticancer activity against human HT-29 cells assessed cell growth at 10 uM after 48 hrs by sulforhodamine B assay relative to control
[25] = tested on: KM12; assay: Anticancer activity against human KM12 cells assessed cell growth at 10 uM after 48 hrs by sulforhodamine B assay relative to control
[26] = tested on: SF-268; assay: Anticancer activity against human SF268 cells assessed cell growth at 10 uM after 48 hrs by sulforhodamine B assay relative to control
[27] = tested on: SF-295; assay: Anticancer activity against human SF295 cells assessed cell growth at 10 uM after 48 hrs by sulforhodamine B assay relative to control
[28] = tested on: SNB-19; assay: Anticancer activity against human SNB19 cells assessed cell growth at 10 uM after 48 hrs by sulforhodamine B assay relative to control
[29] = tested on: U-251; assay: Anticancer activity against human U251 cells assessed cell growth at 10 uM after 48 hrs by sulforhodamine B assay relative to control
[30] = tested on: LOX IMVI; assay: Anticancer activity against human LOXIMVI cells assessed cell growth at 10 uM after 48 hrs by sulforhodamine B assay relative to control
[31] = tested on: M14; assay: Anticancer activity against human M14 cells assessed cell growth at 10 uM after 48 hrs by sulforhodamine B assay relative to control
[32] = tested on: SK-MEL-2; assay: Anticancer activity against human SK-MEL-2 cells assessed cell growth at 10 uM after 48 hrs by sulforhodamine B assay relative to control
[33] = tested on: SK-MEL-28; assay: Anticancer activity against human SK-MEL-28 cells assessed cell growth at 10 uM after 48 hrs by sulforhodamine B assay relative to control
[34] = tested on: UACC-257; assay: Anticancer activity against human UACC257 cells assessed cell growth at 10 uM after 48 hrs by sulforhodamine B assay relative to control
[35] = tested on: IGROV-1; assay: Anticancer activity against human IGROV1 cells assessed cell growth at 10 uM after 48 hrs by sulforhodamine B assay relative to control
[36] = tested on: OVCAR-3; assay: Anticancer activity against human OVCAR-3 cells assessed cell growth at 10 uM after 48 hrs by sulforhodamine B assay relative to control
[37] = tested on: OVCAR-4; assay: Anticancer activity against human OVCAR4 cells assessed cell growth at 10 uM after 48 hrs by sulforhodamine B assay relative to control
[38] = tested on: OVCAR-8; assay: Anticancer activity against human OVCAR8 cells assessed cell growth at 10 uM after 48 hrs by sulforhodamine B assay relative to control
[39] = tested on: SK-OV-3; assay: Anticancer activity against human SKOV3 cells assessed cell growth at 10 uM after 48 hrs by sulforhodamine B assay relative to control
[40] = tested on: A498; assay: Anticancer activity against human A498 cells assessed cell growth at 10 uM after 48 hrs by sulforhodamine B assay relative to control
[41] = tested on: HL-60(TB); assay: Anticancer activity against human HL-60(TB) cells assessed cell growth at 10 uM after 48 hrs by sulforhodamine B assay relative to control
[42] = tested on: CCRF-CEM; assay: Anticancer activity against human CCRF-CEM cells assessed cell growth at 10 uM after 48 hrs by sulforhodamine B assay relative to control
[43] = tested on: T47D; assay: Anticancer activity against human T47D cells assessed cell growth at 10 uM after 48 hrs by sulforhodamine B assay relative to control

Q: For `CCCCCC[n+]1ccn(C)c1.O=S(=O)([N-]S(=O)(=O)C(F)(F)F)C(F)(F)F`, which Activity [1] is on record?
A: 88.98%

Q: What about the Activity [2] of the same compound?
A: 66.14%

Q: What about the Activity [3] of the same compound?
A: 124.14%

Q: And the Activity [4]?
A: 84.29%

Q: And the Activity [5]?
A: 105.34%

Q: What about the Activity [6] of the same compound?
A: 117.36%

Q: And the Activity [7]?
A: 99.76%

Q: And the Activity [8]?
A: 93.37%

Q: What about the Activity [9] of the same compound?
A: 119.52%

Q: And the Activity [10]?
A: 80.22%

Q: What about the Activity [11] of the same compound?
A: 101.77%

Q: And the Activity [12]?
A: 125.38%

Q: What about the Activity [13] of the same compound?
A: 126.57%

Q: And the Activity [14]?
A: 78.86%

Q: And the Activity [15]?
A: 89.75%

Q: And the Activity [16]?
A: 114.14%

Q: And the Activity [17]?
A: 87.92%

Q: What about the Activity [18] of the same compound?
A: 90.77%

Q: And the Activity [19]?
A: 81.74%

Q: What about the Activity [20] of the same compound?
A: 100.66%

Q: And the Activity [21]?
A: 90.7%

Q: And the Activity [22]?
A: 80.77%

Q: What about the Activity [23] of the same compound?
A: 105.5%

Q: What about the Activity [24] of the same compound?
A: 88.19%

Q: And the Activity [25]?
A: 100.77%

Q: And the Activity [26]?
A: 109.15%

Q: And the Activity [27]?
A: 101.37%

Q: And the Activity [28]?
A: 95.37%

Q: What about the Activity [29] of the same compound?
A: 96.82%

Q: What about the Activity [30] of the same compound?
A: 92.45%

Q: What about the Activity [31] of the same compound?
A: 100.39%

Q: And the Activity [32]?
A: 102.62%

Q: And the Activity [33]?
A: 135.26%

Q: What about the Activity [34] of the same compound?
A: 87.47%

Q: And the Activity [35]?
A: 85.47%

Q: What about the Activity [36] of the same compound?
A: 99.74%

Q: And the Activity [37]?
A: 82.57%

Q: And the Activity [38]?
A: 84.83%

Q: What about the Activity [39] of the same compound?
A: 95.29%

Q: What about the Activity [40] of the same compound?
A: 84.14%

Q: And the Activity [41]?
A: 112.14%

Q: And the Activity [42]?
A: 121.99%

Q: Which results are given for `CCCCCCCCCCCC[n+]1ccn(C)c1.[Cl-]`?
A: Activity [1]: 45.02%; Activity [2]: 28.77%; Activity [3]: -1.53%; Activity [4]: 65.71%; Activity [5]: 75.39%; Activity [6]: 6.6%; Activity [7]: 82.17%; Activity [8]: 7.98%; Activity [43]: 24.65%; Activity [10]: -42.1%; Activity [11]: 64.21%; Activity [12]: 116.34%; Activity [13]: 103.6%; Activity [14]: 32.62%; Activity [15]: 38.17%; Activity [16]: 51.88%; Activity [17]: 30.42%; Activity [18]: 23.64%; Activity [19]: -19.92%; Activity [20]: 8.8%; Activity [21]: 31.07%; Activity [22]: 17.62%; Activity [23]: 82.04%; Activity [24]: 12.35%; Activity [25]: 14.03%; Activity [26]: 58.74%; Activity [27]: 9.99%; Activity [28]: 45.54%; Activity [29]: 21.74%; Activity [30]: 23.94%; Activity [31]: 8.94%; Activity [32]: 13.06%; Activity [33]: 34.86%; Activity [34]: -12.38%; Activity [36]: 45.92%; Activity [37]: 22.69%; Activity [38]: 11.53%; Activity [39]: 44.54%; Activity [40]: 12.45%; Activity [41]: 51.9%; Activity [42]: 110.51%

Q: Which Activity [1] does the source give for `Cn1cc[n+](Cc2ccccc2)c1.F[P-](F)(F)(F)(F)F` here?
A: 96.35%

Q: What about the Activity [2] of the same compound?
A: 83.75%

Q: And the Activity [3]?
A: 133.23%

Q: And the Activity [4]?
A: 91.78%

Q: What about the Activity [5] of the same compound?
A: 98.08%

Q: And the Activity [6]?
A: 118.22%

Q: And the Activity [7]?
A: 90.03%

Q: What about the Activity [8] of the same compound?
A: 117.55%

Q: And the Activity [9]?
A: 112.82%

Q: What about the Activity [43] of the same compound?
A: 90.49%

Q: And the Activity [10]?
A: 101.43%

Q: And the Activity [11]?
A: 70.16%

Q: What about the Activity [12] of the same compound?
A: 131.72%

Q: And the Activity [13]?
A: 103.39%

Q: And the Activity [14]?
A: 105.33%

Q: And the Activity [15]?
A: 27.45%

Q: What about the Activity [16] of the same compound?
A: 109.04%

Q: What about the Activity [17] of the same compound?
A: 99.73%

Q: What about the Activity [18] of the same compound?
A: 106.8%

Q: And the Activity [19]?
A: 99.72%

Q: And the Activity [20]?
A: 123.33%

Q: And the Activity [22]?
A: 107.98%

Q: And the Activity [23]?
A: 106.14%

Q: And the Activity [24]?
A: 96.77%

Q: What about the Activity [25] of the same compound?
A: 110.94%

Q: And the Activity [26]?
A: 108.05%

Q: What about the Activity [27] of the same compound?
A: 115.95%

Q: And the Activity [28]?
A: 100.88%

Q: What about the Activity [29] of the same compound?
A: 101.41%

Q: And the Activity [30]?
A: 100.88%

Q: And the Activity [31]?
A: 114.25%

Q: And the Activity [32]?
A: 108.02%

Q: And the Activity [33]?
A: 125.12%

Q: What about the Activity [34] of the same compound?
A: 106.42%

Q: And the Activity [35]?
A: 95.43%

Q: And the Activity [36]?
A: 110.15%

Q: And the Activity [37]?
A: 107.15%

Q: And the Activity [38]?
A: 108.71%

Q: And the Activity [39]?
A: 109.97%

Q: What about the Activity [40] of the same compound?
A: 112.56%

Q: What about the Activity [41] of the same compound?
A: 44.77%

Q: What about the Activity [42] of the same compound?
A: 113.04%

— ChEMBL document CHEMBL1153245, “A profile of the in vitro anti-tumor activity of imidazolium-based ionic liquids” (2010)
